Laboratory results from ChEMBL document CHEMBL1150317, “Discovery of aryl aminoquinazoline pyridones as potent, selective, and orally efficacious inhibitors of receptor tyrosine kinase c-Kit” (J Med Chem, 2008).

How the values were obtained:
[1] = target: T1, Mast/stem cell growth factor receptor Kit (Homo sapiens, UniProt P10721)
Description: Inhibition of SCF-induced phosphorylation of c-Kit in MO7e cells by TR-FRET assay

[2] = Inhibition of p38 by TR-FRET assay
[3] = target: Vascular endothelial growth factor receptor 2 (Homo sapiens, UniProt P35968)
Description: Inhibition of KDR by TR-FRET assay

[4] = target: Tyrosine-protein kinase Lck (Homo sapiens, UniProt P06239)
Chain of Tyrosine-protein kinase Lck (P06239 whole entry): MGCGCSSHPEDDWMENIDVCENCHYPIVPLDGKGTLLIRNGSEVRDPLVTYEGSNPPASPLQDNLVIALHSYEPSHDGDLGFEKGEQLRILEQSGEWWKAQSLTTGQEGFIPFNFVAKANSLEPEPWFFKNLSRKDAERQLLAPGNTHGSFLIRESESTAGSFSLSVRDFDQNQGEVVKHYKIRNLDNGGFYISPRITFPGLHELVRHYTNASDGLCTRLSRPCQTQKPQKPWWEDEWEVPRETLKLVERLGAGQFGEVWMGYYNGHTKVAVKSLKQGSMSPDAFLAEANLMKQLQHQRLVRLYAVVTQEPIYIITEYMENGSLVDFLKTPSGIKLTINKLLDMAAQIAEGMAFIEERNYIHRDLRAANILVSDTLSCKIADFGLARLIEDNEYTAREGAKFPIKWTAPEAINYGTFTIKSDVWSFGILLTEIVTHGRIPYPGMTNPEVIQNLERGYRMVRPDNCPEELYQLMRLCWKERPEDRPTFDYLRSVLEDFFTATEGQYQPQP
Description: Inhibition of Lck by TR-FRET assay

[5] = target: Proto-oncogene tyrosine-protein kinase Src (Homo sapiens, UniProt P12931)
Chain of Proto-oncogene tyrosine-protein kinase Src (P12931 2-536 limits assumed): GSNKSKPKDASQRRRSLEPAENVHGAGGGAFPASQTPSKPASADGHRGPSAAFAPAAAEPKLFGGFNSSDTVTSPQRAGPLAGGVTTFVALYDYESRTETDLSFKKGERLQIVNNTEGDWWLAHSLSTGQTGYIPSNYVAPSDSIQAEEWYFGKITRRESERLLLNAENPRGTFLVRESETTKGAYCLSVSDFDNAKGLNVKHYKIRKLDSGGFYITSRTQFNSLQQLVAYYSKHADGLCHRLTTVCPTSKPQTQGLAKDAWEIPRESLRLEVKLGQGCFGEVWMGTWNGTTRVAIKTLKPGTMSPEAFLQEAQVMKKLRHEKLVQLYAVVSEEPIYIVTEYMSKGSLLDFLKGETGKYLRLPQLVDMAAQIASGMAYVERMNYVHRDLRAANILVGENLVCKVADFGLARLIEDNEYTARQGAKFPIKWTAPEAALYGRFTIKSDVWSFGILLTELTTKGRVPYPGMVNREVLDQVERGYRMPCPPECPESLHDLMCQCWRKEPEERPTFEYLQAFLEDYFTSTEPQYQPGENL
Description: Inhibition of Src by TR-FRET assay

[6] = target: T1, Mast/stem cell growth factor receptor Kit; remark: listed apart in the source
Description: Inhibition of c-Kit by TR-FRET assay

[7] = Oral bioavailability in Sprague-Dawley rat at 2 mg/kg; format: ADME, organism-based; conditions: in vivo
[8] = Cmax in Sprague-Dawley rat at 2 mg/kg, po; format: ADME, organism-based; parameters: dose 2 mg/kg, route oral; conditions: in vivo
[9] = Clearance in Sprague-Dawley rat at 1 mg/kg, iv; format: ADME, organism-based; parameters: dose 1 mg/kg, route intravenous; conditions: in vivo
[10] = Half life in Sprague-Dawley rat at 2 mg/kg, po; format: ADME, organism-based; parameters: dose 2 mg/kg, route oral; conditions: in vivo
[11] = Volume of distribution at steady state in Sprague-Dawley rat at 1 mg/kg, iv; format: ADME, organism-based; parameters: dose 1 mg/kg, route intravenous; conditions: in vivo, read-out: Vdss
[12] = AUC (0 to t) in Sprague-Dawley rat at 2 mg/kg, po; format: ADME, organism-based; parameters: dose 2 mg/kg, route oral; conditions: plasma

Chain of Vascular endothelial growth factor receptor 2 (P35968 whole entry): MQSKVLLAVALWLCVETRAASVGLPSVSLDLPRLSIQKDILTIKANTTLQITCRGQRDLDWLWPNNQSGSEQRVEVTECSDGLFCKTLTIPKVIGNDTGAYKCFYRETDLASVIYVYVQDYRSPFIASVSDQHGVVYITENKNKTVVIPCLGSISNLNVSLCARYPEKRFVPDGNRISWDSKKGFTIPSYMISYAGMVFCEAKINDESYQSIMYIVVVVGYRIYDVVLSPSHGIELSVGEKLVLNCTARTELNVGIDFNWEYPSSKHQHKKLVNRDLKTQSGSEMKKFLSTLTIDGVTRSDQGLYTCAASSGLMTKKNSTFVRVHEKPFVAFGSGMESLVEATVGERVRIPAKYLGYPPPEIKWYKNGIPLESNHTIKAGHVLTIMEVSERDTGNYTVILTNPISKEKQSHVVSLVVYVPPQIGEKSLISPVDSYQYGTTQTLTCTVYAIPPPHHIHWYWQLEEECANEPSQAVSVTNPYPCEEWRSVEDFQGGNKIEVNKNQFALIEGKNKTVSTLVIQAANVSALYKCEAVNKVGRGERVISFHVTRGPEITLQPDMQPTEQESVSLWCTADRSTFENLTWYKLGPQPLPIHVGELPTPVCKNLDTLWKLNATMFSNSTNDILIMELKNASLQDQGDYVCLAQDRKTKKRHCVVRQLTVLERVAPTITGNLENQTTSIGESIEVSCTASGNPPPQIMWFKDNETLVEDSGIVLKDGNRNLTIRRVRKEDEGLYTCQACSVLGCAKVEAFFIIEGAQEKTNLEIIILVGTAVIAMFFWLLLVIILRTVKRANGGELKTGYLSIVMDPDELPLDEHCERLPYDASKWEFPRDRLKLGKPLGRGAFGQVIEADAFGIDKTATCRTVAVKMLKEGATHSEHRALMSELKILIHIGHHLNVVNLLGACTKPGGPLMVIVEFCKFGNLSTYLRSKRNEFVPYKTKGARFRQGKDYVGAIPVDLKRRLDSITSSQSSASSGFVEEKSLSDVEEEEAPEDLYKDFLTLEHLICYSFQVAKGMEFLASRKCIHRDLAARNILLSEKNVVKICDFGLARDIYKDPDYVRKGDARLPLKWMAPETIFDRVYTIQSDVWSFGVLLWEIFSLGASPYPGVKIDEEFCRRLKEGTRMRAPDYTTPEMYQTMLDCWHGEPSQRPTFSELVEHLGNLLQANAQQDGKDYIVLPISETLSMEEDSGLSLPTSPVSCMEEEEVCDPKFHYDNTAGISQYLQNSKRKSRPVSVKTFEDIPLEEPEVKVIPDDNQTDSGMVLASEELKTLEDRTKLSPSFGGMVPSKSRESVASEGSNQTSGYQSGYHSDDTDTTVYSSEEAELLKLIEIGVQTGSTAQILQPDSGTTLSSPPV
T1 sequence (P10721 whole entry): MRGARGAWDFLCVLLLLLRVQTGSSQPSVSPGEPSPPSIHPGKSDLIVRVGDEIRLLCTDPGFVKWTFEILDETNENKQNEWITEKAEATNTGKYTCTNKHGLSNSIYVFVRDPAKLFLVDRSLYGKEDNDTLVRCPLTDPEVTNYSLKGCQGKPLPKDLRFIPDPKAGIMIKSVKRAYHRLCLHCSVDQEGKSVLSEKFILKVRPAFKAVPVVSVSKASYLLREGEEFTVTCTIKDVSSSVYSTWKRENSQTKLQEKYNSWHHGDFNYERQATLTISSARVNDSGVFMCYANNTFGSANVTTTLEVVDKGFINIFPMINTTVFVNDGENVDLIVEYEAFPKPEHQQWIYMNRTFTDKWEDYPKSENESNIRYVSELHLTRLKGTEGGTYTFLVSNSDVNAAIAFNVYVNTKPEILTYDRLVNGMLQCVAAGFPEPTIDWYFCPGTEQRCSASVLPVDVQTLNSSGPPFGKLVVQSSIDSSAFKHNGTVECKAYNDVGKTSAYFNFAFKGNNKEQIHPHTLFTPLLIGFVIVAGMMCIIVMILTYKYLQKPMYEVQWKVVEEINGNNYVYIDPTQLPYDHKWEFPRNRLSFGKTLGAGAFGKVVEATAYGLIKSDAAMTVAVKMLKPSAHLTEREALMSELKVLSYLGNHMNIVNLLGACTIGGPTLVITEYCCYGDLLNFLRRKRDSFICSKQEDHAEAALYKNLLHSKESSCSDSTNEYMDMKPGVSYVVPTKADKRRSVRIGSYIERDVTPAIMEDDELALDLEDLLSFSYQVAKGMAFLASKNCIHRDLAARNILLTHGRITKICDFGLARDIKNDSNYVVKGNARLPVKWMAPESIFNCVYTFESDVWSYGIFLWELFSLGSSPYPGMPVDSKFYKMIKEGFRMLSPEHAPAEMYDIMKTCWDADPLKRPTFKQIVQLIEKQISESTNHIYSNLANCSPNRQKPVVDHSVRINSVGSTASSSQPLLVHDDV

Structure (SMILES) | IC50 [1] [nM] | IC50 [2] [nM] | IC50 [3] [nM] | IC50 [4] [nM] | IC50 [5] [nM] | IC50 [6] [nM] | bioavailability [7] [%] | Cmax [8] [ng/mL] | clearance [9] [mL/min/kg] | half-life [10] [h] | Vd [11] [L/kg] | AUC(0-t) [12] [ng·h/mL]
Cc1ccn(-c2ccc(N3CCOCC3)cc2)c(=O)c1-c1ccc2nc(N)ncc2c1 | 72 | 21000 | 4400 | 1800 | 1400 | – | – | – | – | – | – | –
Cc1ccn(-c2ccc(Cl)cc2)c(=O)c1-c1ccc2nc(N)ncc2c1 | 14 | 4900 | > 5000 | 340 | 260 | – | – | – | – | – | – | –
Cc1ccn(CCC2CCCC2)c(=O)c1-c1ccc2nc(N)ncc2c1 | – | 5800 | 1400 | 580 | 800 | 1 | – | – | – | – | – | –
Cc1ccn(-c2ccc(Cl)c(F)c2)c(=O)c1-c1ccc2nc(N)ncc2c1 | – | 9200 | > 5000 | 480 | 390 | – | – | – | – | – | – | –
Cc1ccn(-c2ccc(-n3cccn3)cc2)c(=O)c1-c1ccc2nc(N)ncc2c1 | 18 | 3800 | 3400 | 110 | 77 | – | – | – | – | – | – | –
CC(=O)c1ccc(-n2ccc(C)c(-c3ccc4nc(N)ncc4c3)c2=O)cc1 | – | 18000 | > 5000 | 570 | 390 | – | – | – | – | – | – | –
Cc1ccn(-c2ccccc2)c(=O)c1-c1ccc2nc(N)ncc2c1 | – | – | > 1000 | 1700 | 990 | 210 | – | – | – | – | – | –
Cc1ccc(-n2ccc(C)c(-c3ccc4nc(N)ncc4c3)c2=O)cc1F | 12 | 40000 | > 5000 | 25000 | 25000 | – | 100 | 280 | 32.5 | 2.9 | 2.39 | 1310
